Laboratory results published in paper PMC12655637, “Design, Synthesis, and Mechanistic Study of Novel Ciprofloxacin/Thiazole Chalcone Hybrids as Potential Anticancer Agents” (Pharmaceuticals, 2025).

How the values were obtained:
[1] = system: 786−0; experiment: NCI-60 screening, one-dose (10 µM) and five-dose, SRB; format: cell-based, human
[2] = system: NCI/ADR-RES; experiment: as above; format: cell-based, human
[3] = system: HOP-62; experiment: as above; format: cell-based, human
[4] = system: MCF7; experiment: as above; format: cell-based, human
[5] = system: HL-60(TB); experiment: as above; format: cell-based, human
[6] = system: U251; experiment: as above; format: cell-based, human
[7] = system: NCI-H460; experiment: as above; format: cell-based, human; conditions: five-dose, NCI-H460
[8] = system: M14; experiment: as above; format: cell-based, human
[9] = target: topoisomerase IIβ (Homo sapiens, UniProt Q02880); experiment: Topoisomerase II inhibition assay (ELISA kit of human DNA topoisomerase)
[10] = system: UACC-62; experiment: NCI-60 screening, one-dose (10 µM) and five-dose, SRB; format: cell-based
[11] = system: UACC-257; experiment: as above; format: cell-based, human
[12] = system: RPMI-8226; experiment: as above; format: cell-based, human
[13] = system: NCI-H23; experiment: as above; format: cell-based, human
[14] = system: MALME-3M; experiment: as above; format: cell-based, human
[15] = system: MOLT-4; experiment: as above; format: cell-based, human; conditions: Homo sapiens; 10 μM; MOLT-4, Leukemia; read-out: Growth percentage
[16] = Homo sapiens, five-dose, read-out: LC50 (the source's name)
[17] = Homo sapiens, five-dose, HOP-62
[18] = Homo sapiens, U-251, five-dose, U251
[19] = Homo sapiens, five-dose, UACC-62
[20] = Homo sapiens, five-dose, UACC-257
[21] = Homo sapiens, five-dose, NCI-H23

topoisomerase IIβ, sequence (Q02880 2-1626): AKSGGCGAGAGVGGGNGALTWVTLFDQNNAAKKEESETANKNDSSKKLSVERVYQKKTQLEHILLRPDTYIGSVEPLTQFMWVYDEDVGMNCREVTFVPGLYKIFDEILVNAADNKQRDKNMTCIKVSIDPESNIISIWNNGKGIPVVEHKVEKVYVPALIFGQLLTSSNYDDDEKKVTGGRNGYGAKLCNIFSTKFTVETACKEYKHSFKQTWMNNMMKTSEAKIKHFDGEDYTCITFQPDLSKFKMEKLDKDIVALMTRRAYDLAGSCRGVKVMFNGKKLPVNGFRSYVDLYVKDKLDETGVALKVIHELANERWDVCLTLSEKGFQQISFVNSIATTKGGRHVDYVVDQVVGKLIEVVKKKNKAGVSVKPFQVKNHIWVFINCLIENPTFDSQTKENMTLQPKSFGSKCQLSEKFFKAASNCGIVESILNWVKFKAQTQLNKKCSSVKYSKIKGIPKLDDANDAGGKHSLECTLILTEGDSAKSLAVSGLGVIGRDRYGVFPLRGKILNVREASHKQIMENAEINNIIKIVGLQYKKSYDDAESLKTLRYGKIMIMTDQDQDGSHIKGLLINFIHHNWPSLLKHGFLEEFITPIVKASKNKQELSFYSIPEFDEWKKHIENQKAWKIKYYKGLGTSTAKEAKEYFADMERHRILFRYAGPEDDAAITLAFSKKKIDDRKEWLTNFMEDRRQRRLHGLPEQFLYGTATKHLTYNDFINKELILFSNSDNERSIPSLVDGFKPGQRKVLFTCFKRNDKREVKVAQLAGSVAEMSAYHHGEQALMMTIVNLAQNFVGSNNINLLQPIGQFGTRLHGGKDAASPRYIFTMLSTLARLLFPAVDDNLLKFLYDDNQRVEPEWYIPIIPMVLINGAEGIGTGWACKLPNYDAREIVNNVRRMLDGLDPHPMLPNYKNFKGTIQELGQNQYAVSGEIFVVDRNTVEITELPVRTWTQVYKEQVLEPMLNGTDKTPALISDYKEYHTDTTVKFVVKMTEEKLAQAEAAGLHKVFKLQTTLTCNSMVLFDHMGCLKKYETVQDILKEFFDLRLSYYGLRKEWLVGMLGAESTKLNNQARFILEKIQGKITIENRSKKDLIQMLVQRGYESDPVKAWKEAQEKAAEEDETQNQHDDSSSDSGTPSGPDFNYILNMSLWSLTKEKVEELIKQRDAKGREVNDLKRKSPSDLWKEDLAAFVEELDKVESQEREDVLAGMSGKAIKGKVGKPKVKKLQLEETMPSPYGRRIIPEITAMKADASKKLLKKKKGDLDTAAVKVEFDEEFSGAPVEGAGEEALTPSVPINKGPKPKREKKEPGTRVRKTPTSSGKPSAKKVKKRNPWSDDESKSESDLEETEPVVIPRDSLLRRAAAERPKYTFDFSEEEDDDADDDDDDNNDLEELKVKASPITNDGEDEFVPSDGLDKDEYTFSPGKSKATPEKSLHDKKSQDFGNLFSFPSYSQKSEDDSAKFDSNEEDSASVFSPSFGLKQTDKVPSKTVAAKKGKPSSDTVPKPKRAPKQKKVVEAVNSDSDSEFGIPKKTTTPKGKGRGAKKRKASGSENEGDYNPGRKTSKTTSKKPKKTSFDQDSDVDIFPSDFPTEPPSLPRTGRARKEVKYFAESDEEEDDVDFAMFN

## Cc1nc(SCC(=O)N2CCN(c3cc4c(cc3F)c(=O)c(C(=O)O)cn4C3CC3)CC2)sc1C(=O)/C=C/c1cccc(F)c1 [Compound 4d, (E)-1-Cyclopropyl-6-fluoro-7-(4-(2-((5-(3-(3-fluorophenyl)acryloyl)-4-methylthiazol-2-yl)thio)acetyl)piperazin-1-yl)-4-oxo-1,4-dihydroquinoline-3-carboxylic Acid]
[1]; Homo sapiens, 10 μM, 786−0, Renal Cancer, read-out: Growth percentage
  activity at 10 µM: 41.9%
[1]; Homo sapiens, five-dose, 786−0
  IC50: > 100 µM
[1]; Homo sapiens, five-dose, 786−0, read-out: LC50 (the source's name)
  CC50: > 100 µM
[1]; five-dose, 786−0
  TGI: 100.0 µM
[2]; Homo sapiens, 10 μM, Ovarian Cancer, read-out: Growth percentage
  activity at 10 µM: 110%
[2]; Homo sapiens, five-dose
  GI50: > 100 µM
  IC50: > 100 µM
[2]; [16]
  CC50: > 100 µM
[2]; five-dose
  TGI: 100.0 µM
[3]; Homo sapiens, HOP-62, 10 μM, HOP-62, Non-Small-Cell Lung Cancer, read-out: Growth percentage
  activity at 10 µM: -55.3%
[3]; [17]
  GI50: 7.4 µM
  IC50: 72.4 µM
[3]; Homo sapiens, five-dose, HOP-62, read-out: LC50 (the source's name)
  CC50: > 100 µM
[3]; five-dose, HOP-62
  TGI: 100.0 µM
[4]; Homo sapiens, MCF7, 10 μM, MCF7, Breast Cancer, read-out: Growth percentage
  activity at 10 µM: -57.6%
[4]; Homo sapiens, five-dose, MCF7
  GI50: 0.49 µM
  IC50: 0.69 µM
[4]; Homo sapiens, five-dose, MCF7, read-out: LC50 (the source's name)
  CC50: > 100 µM
[4]; five-dose, MCF7
  TGI: 100.0 µM
[5]; Homo sapiens, HL-60, 10 μM, HL-60(TB), Leukemia, read-out: Growth percentage
  activity at 10 µM: -99.8%
[5]; Homo sapiens, HL-60, five-dose, HL-60(TB)
  IC50: 2.9 µM
[5]; Homo sapiens, HL-60, leukemia HL-60
  IC50: 3.7 µM
[5]; Homo sapiens, five-dose, HL-60(TB)
  GI50: 1.78 µM
[5]; Homo sapiens, five-dose, HL-60(TB), read-out: LC50 (the source's name)
  CC50: 11 µM
[5]; five-dose, HL-60(TB)
  TGI: 3.8 µM
[6]; Homo sapiens, U-251, 10 μM, U251, CNS Cancer, read-out: Growth percentage
  activity at 10 µM: -7.6%
[6]; [18]
  GI50: > 100 µM
  IC50: > 100 µM
[6]; Homo sapiens, U-251, five-dose, U251, read-out: LC50 (the source's name)
  CC50: > 100 µM
[6]; five-dose, U251
  TGI: 100.0 µM
[7]; Homo sapiens
  GI50: > 100 µM
  IC50: > 100 µM
[7]; Homo sapiens, read-out: LC50 (the source's name)
  CC50: > 100 µM
[7]
  TGI: 100.0 µM
[8]; Homo sapiens, 10 μM, M14, Melanoma, read-out: Growth percentage
  activity at 10 µM: -15.3%
[8]; Homo sapiens, five-dose, M14
  GI50: 12 µM
  IC50: > 100 µM
[8]; Homo sapiens, five-dose, M14, read-out: LC50 (the source's name)
  CC50: > 100 µM
[8]; five-dose, M14
  TGI: 100.0 µM
[9]; HCT116, control = 1
  TOPO II fld (fold of control): 0.481
[9]; in comparison to negative control
  Topoisomerase II % Inhibition: 51.9%
[10]; Homo sapiens, 10 μM, UACC-62, Melanoma, read-out: Growth percentage
  activity at 10 µM: 33.1%
[10]; [19]
  GI50: 25.7 µM
  IC50: > 100 µM
[10]; Homo sapiens, five-dose, UACC-62, read-out: LC50 (the source's name)
  CC50: > 100 µM
[10]; five-dose, UACC-62
  TGI: 100.0 µM
[11]; Homo sapiens, 10 μM, UACC-257, Melanoma, read-out: Growth percentage
  activity at 10 µM: 53.9%
[11]; [20]
  GI50: 46.8 µM
  IC50: > 100 µM
[11]; Homo sapiens, five-dose, UACC-257, read-out: LC50 (the source's name)
  CC50: > 100 µM
[11]; five-dose, UACC-257
  TGI: 100.0 µM
[12]; Homo sapiens, RPMI-8226, RPMI-8226
  IC50: 0.3 µM
[12]; Homo sapiens, RPMI-8226, five-dose, RPMI-8226
  IC50: 0.34 µM
[12]; Homo sapiens, five-dose, RPMI-8226
  GI50: 0.19 µM
[12]; Homo sapiens, five-dose, RPMI-8226, read-out: LC50 (the source's name)
  CC50: 0.6 µM
[12]; five-dose, RPMI-8226
  TGI: 2.63 µM
[13]; Homo sapiens, 10 μM, NCI-H23, Non-Small-Cell Lung Cancer, read-out: Growth percentage
  activity at 10 µM: 45.6%
[13]; [21]
  GI50: > 100 µM
  IC50: > 100 µM
  LC50 (50% lethal concentration): > 100 µM
[13]; five-dose, NCI-H23
  TGI: 100.0 µM
[14]; 10 μM, Melanoma
  Growth percentage: 106.8%
[14]; Homo sapiens, five-dose
  GI50: > 100 µM
  IC50: > 100 µM
[14]; [16]
  CC50: > 100 µM
[14]; five-dose
  TGI: 100.0 µM
[15]
  activity at 10 µM: 0.79%
